Measurements: ChEMBL document CHEMBL2440075, “In vitro structure-activity relationships of aplysinopsin analogs and their in vivo evaluation in the chick anxiety-depression model” (Bioorg Med Chem, 2013)
pKi: −log10 of the molar value.

What was measured:
[1] = target: 5-hydroxytryptamine receptor 7 (Homo sapiens, UniProt P34969); assay: Displacement of [3H]LSD from human recombinant 5HT7 receptor stably expressed in HEK cells; type: cell-based, HEK293
[2] = target: 5-hydroxytryptamine receptor 5A (Homo sapiens, UniProt P47898); assay: Displacement of [3H]LSD from human recombinant 5HT5A receptor expressed in Flp-In CHO cells; type: cell-based
5-hydroxytryptamine receptor 5A, sequence (P47898 whole entry): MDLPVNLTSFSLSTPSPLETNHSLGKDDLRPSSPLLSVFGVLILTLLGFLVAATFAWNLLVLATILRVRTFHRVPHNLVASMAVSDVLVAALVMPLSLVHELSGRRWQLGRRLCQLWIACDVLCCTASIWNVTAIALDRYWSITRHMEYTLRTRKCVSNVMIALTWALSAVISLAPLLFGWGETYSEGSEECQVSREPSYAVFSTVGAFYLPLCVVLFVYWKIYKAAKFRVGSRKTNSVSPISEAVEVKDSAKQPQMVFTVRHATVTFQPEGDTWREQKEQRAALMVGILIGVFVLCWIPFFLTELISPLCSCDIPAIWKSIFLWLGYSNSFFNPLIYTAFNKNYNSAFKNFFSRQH

[3] = target: T1, 5-hydroxytryptamine receptor 3A (Homo sapiens, UniProt P46098); assay: Displacement of [3H]GR65630 from human recombinant 5HT3 receptor expressed in HEKT cells; type: cell-based
T1 sequence (P46098 whole entry): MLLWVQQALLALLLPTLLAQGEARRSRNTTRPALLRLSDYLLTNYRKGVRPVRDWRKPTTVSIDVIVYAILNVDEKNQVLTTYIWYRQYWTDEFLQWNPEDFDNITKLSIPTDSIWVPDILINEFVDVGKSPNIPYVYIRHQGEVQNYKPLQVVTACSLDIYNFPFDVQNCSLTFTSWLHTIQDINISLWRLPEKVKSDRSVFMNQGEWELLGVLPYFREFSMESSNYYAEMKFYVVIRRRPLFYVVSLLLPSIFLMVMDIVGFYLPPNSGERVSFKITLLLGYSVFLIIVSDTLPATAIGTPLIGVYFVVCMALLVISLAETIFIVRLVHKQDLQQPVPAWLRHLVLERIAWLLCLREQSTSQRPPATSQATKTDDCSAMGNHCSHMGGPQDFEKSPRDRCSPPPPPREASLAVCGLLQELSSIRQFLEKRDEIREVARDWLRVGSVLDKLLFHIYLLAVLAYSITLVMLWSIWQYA

[4] = target: T2, 5-hydroxytryptamine receptor 2C (Homo sapiens, UniProt P28335); assay: Displacement of [3H]mesulergine from human recombinant 5HT2C receptor expressed in Flp-IN HEK cells; type: cell-based, HEK293
T2 sequence (P28335 whole entry): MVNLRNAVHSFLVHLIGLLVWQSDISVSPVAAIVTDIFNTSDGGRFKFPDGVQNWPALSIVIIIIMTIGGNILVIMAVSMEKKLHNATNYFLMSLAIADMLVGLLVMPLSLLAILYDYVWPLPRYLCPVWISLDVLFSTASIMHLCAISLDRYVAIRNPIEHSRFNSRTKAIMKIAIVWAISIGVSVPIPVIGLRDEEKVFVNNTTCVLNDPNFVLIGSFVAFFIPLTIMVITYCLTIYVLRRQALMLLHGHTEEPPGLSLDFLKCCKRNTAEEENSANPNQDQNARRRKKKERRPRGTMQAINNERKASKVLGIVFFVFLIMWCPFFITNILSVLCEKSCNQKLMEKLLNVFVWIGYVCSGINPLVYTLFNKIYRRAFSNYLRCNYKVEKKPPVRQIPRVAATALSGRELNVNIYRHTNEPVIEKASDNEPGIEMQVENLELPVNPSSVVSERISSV

[5] = target: 5-hydroxytryptamine receptor 2B (Homo sapiens, UniProt P41595); assay: Displacement of [3H]LSD from human recombinant 5HT2B receptor stably expressed in HEK cells; type: cell-based, HEK293
5-hydroxytryptamine receptor 2B, sequence (P41595 whole entry): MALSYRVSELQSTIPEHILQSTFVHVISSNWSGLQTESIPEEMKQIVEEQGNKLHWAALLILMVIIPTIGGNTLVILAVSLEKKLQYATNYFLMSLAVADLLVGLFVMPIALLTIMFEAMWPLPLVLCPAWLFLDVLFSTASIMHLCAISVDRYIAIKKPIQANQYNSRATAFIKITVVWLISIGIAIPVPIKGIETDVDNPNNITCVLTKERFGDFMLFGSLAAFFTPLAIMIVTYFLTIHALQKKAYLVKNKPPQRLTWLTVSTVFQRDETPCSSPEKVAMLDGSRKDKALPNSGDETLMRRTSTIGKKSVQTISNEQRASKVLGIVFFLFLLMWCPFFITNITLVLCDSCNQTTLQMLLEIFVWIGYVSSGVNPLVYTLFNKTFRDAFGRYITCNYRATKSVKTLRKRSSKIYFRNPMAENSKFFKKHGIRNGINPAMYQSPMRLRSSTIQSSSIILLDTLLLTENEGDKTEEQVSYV

[6] = target: T3, 5-hydroxytryptamine receptor 1A (Homo sapiens, UniProt P08908); assay: Displacement of [3H]way100635 from human recombinant 5HT1A receptor stably expressed in CHO cells; type: cell-based
T3 sequence (P08908 whole entry): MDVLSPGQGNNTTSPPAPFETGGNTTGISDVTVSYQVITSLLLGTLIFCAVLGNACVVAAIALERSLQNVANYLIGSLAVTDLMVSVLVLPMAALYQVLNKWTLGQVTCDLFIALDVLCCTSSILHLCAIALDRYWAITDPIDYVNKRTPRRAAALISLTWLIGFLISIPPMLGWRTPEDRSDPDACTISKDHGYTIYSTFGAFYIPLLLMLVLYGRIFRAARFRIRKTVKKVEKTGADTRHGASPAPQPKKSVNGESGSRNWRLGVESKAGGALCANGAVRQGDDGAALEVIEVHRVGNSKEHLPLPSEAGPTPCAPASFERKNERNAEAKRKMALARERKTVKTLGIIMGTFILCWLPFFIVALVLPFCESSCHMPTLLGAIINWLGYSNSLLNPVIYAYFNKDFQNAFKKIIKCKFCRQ

[7] = target: 5-hydroxytryptamine receptor 4 (Homo sapiens, UniProt Q13639); assay: Displacement of [3H]GR113808 from human recombinant 5HT4 receptor
5-hydroxytryptamine receptor 4, sequence (Q13639 whole entry): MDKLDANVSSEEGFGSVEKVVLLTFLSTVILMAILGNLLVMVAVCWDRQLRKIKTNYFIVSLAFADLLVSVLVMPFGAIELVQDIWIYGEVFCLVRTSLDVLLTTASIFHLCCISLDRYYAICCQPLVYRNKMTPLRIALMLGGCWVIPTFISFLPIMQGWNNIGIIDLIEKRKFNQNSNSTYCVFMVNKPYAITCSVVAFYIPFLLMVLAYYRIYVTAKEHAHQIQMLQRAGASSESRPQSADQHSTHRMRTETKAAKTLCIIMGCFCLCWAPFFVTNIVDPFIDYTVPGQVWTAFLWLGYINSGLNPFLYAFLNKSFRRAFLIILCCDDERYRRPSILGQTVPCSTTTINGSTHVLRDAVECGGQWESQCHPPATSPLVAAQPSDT

[8] = target: 5-hydroxytryptamine receptor 2A (Rattus norvegicus, UniProt P14842); assay: Displacement of [3H]ketanserin from rat 5HT2A receptor stably expressed in 3T3 cells; type: cell-based
5-hydroxytryptamine receptor 2A, sequence (P14842 whole entry): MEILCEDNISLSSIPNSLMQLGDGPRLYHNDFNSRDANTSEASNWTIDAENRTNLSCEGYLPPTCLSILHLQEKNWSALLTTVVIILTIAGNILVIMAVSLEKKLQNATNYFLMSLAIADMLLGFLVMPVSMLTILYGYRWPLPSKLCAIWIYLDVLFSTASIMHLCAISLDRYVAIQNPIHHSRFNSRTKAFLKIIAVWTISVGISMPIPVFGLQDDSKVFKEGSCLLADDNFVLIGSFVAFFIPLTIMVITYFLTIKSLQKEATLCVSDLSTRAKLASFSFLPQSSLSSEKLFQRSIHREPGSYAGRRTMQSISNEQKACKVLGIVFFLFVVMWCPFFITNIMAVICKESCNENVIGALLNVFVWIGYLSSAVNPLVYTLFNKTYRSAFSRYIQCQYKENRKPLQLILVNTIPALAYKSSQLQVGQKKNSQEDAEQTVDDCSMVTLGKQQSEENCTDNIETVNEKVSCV

[9] = target: 5-hydroxytryptamine receptor 1E (Homo sapiens, UniProt P28566); assay: Displacement of [3H]5-HT from human recombinant 5HT1E receptor stably expressed in HEK cells; type: cell-based, HEK293
5-hydroxytryptamine receptor 1E, sequence (P28566 whole entry): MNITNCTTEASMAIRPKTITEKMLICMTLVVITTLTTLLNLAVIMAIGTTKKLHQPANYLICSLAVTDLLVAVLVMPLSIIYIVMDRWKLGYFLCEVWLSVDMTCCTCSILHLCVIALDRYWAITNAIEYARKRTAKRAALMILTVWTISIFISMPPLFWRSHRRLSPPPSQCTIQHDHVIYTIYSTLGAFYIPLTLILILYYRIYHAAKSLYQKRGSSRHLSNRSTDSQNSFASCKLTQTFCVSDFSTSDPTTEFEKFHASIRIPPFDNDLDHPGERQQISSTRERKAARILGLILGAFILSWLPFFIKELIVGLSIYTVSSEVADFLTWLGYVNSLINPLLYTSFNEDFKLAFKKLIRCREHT

[10] = target: 5-hydroxytryptamine receptor 6 (Homo sapiens, UniProt P50406); assay: Displacement of [3H]LSD from human recombinant 5HT6 receptor stably expressed in HEK cells; type: cell-based, HEK293
5-hydroxytryptamine receptor 6, sequence (P50406 whole entry): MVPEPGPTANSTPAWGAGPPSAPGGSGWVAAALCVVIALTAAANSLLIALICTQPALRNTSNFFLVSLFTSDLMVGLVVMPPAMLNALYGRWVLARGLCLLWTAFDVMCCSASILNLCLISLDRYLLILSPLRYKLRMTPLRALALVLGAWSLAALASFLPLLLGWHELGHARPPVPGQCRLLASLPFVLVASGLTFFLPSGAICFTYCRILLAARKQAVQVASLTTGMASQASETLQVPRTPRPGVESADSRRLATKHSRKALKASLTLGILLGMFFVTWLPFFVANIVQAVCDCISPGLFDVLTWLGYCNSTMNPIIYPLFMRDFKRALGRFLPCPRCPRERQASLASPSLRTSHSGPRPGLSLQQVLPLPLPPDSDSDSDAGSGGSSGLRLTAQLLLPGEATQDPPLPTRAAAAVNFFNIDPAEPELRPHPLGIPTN

[11] = target: 5-hydroxytryptamine receptor 1D (Homo sapiens, UniProt P28221); assay: Displacement of [3H]5-CT from human recombinant 5HT1D receptor expressed in HEKT cells; type: cell-based
5-hydroxytryptamine receptor 1D, sequence (P28221 whole entry): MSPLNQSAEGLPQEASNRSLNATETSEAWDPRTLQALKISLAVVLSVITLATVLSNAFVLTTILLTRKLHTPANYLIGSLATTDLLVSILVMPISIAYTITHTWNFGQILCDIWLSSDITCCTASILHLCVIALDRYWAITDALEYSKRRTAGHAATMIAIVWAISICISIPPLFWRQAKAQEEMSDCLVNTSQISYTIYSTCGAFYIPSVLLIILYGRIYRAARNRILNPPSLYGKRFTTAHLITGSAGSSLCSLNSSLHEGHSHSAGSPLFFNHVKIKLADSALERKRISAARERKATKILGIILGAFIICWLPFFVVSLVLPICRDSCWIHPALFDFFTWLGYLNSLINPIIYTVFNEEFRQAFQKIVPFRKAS

[12] = target: 5-hydroxytryptamine receptor 1B (Homo sapiens, UniProt P28222); assay: Displacement of [3H]5-CT from human recombinant 5HT1B receptor stably expressed in HEK cells; type: cell-based, HEK293
5-hydroxytryptamine receptor 1B, sequence (P28222 whole entry): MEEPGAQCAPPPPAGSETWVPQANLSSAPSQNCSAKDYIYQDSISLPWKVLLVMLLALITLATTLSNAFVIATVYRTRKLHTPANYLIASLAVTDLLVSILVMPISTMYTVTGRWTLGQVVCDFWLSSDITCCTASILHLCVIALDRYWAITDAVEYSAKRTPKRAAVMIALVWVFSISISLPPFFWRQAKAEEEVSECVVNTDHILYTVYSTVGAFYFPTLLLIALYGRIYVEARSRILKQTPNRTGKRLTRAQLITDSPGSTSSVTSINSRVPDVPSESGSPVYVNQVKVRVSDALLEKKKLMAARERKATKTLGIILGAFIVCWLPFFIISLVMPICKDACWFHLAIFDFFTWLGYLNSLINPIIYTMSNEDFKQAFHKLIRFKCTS

5-hydroxytryptamine receptor 7, sequence (P34969 whole entry): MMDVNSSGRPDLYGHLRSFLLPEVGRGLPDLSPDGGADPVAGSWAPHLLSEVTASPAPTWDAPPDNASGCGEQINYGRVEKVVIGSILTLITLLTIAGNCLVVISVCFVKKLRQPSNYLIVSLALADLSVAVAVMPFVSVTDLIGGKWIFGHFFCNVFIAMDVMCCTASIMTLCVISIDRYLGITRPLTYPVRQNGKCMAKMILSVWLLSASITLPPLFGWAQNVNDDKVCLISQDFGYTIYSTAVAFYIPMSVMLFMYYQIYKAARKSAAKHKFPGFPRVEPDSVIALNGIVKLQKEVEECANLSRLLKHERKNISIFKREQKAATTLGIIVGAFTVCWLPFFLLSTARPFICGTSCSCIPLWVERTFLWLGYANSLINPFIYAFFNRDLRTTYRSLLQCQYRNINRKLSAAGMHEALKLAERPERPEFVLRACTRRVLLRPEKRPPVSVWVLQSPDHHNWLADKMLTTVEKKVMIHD

Row | Compound | pKi [2] | pKi [4] | pKi [5] | pKi [6] | pKi [8] | other results
1 | C/N=C1\N(C)C(=O)/C(=C\c2c[nH]c3ccc(Br)cc23)N1C | 5.04 | 5.61 | 5.79 | 5.60 | – | pKi [1]: 5.27; pKi [3]: 5.58
2 | CSC1=NC(=O)/C(=C/c2c[nH]c3ccc(Br)cc23)N1 | – | 5.68 | 5.87 | – | – | pKi [7]: 5.42
3 | C/N=C1\NC(=O)/C(=C/c2c[nH]c3ccccc23)N1 | – | 6.01 | 6.54 | – | – | pKi [7]: 6.03
4 | N=C1NC(=O)/C(=C\c2c[nH]c3ccccc23)N1 | 7.00 | 6.46 | 6.63 | – | 5.93 | –
5 | N=C1NC(=O)/C(=C\c2c[nH]c3cccc(Br)c23)N1 | 6.91 | 6.22 | 6.35 | – | 5.34 | –
6 | O=C1NC(=S)N/C1=C\c1c[nH]c2cc(Br)ccc12 | – | – | 5.57 | – | – | –
7 | C/N=C1\NC(=O)/C(=C/c2c[nH]c3cc(Br)ccc23)N1 | – | 6.01 | 6.81 | – | – | pKi [7]: 5.94
8 | CN1C(=N)N/C(=C/c2c[nH]c3c(Br)cccc23)C1=O | 5.81 | 5.00 | 6.23 | 5.14 | – | pKi [9]: < 5.00
9 | C/N=C1\N(C)C(=O)/C(=C\c2c[nH]c3c(Br)cccc23)N1C | 5.16 | 5.19 | 6.02 | < 5.00 | – | pKi [10]: 5.14; pKi [11]: 5.05; pKi [12]: < 5.00
10 | O=C1NC(=S)N/C1=C\c1c[nH]c2c(Br)cccc12 | – | – | – | – | – | pKi [7]: 5.65
11 | O=C1NC(=S)N/C1=C\c1c[nH]c2cccc(Br)c12 | – | 5.73 | 6.43 | – | – | pKi [7]: 5.63
12 | CN1C(=N)NC(=O)/C1=C\c1c[nH]c2ccc(Br)cc12 | – | 5.61 | 6.07 | 5.49 | – | pKi [9]: < 5.00
13 | CN1C(=N)N(C)/C(=C/c2c[nH]c3ccc(Br)cc23)C1=O | 5.17 | 5.90 | 5.90 | 6.28 | – | pKi [3]: 6.00
14 | C/N=C1\N(C)C(=O)/C(=C\c2c[nH]c3ccccc23)N1C [METHYLAPLYSINOPSIN] | – | 5.00 | 5.34 | – | < 5.00 | pKi [10]: 5.77; pKi [3]: 5.82; pKi [9]: < 5.00
15 | C/N=C1\NC(=O)/C(=C\c2c[nH]c3ccc(Br)cc23)N1C | – | 5.97 | 6.05 | 5.58 | – | pKi [1]: 5.39; pKi [3]: 5.21
16 | C/N=C1\NC(=O)/C(=C/c2c[nH]c3cccc(Br)c23)N1 | 5.47 | 7.10 | 7.30 | – | 6.33 | pKi [10]: 5.43; pKi [7]: 6.33
17 | CN1C(=N)N/C(=C/c2c[nH]c3ccccc23)C1=O | – | 5.00 | 5.89 | – | – | pKi [9]: < 5.00
18 | C/N=C1\NC(=O)/C(=C/c2c[nH]c3ccc(Br)cc23)N1 | – | 6.37 | 7.03 | – | 6.17 | pKi [10]: 6.07; pKi [7]: 6.65
19 | C/N=C1\NC(=O)/C(=C/c2c[nH]c3c(Br)cccc23)N1 | 5.48 | 6.17 | 6.45 | – | 5.44 | pKi [7]: 6.22
20 | C/N=C1\N(C)C(=O)/C(=C\c2c[nH]c3cccc(Br)c23)N1C | 5.29 | 5.73 | 6.05 | 5.16 | < 5.00 | pKi [10]: 5.12; pKi [3]: 6.23; pKi [9]: < 5.00; pKi [11]: 5.59
21 | C/N=C1/N/C(=C/c2c[nH]c3ccccc23)C(=O)N1C | – | 5.00 | 5.30 | – | – | pKi [9]: < 5.00
22 | C/N=C1/N/C(=C/c2c[nH]c3c(Br)cccc23)C(=O)N1C | – | 5.00 | 6.08 | – | – | pKi [9]: < 5.00

Row | Compound | pKi [2] | pKi [4] | pKi [5] | pKi [6] | pKi [8] | other results
23 | CSC1=NC(=O)/C(=C/c2c[nH]c3cc(Br)ccc23)N1 | – | 5.36 | 5.94 | – | – | pKi [7]: 5.28
24 | CN1C(=N)N(C)/C(=C/c2c[nH]c3ccccc23)C1=O [APLYSINOPSIN] | – | 5.00 | 5.35 | < 5.00 | – | pKi [10]: 5.06; pKi [3]: 5.52
25 | N=C1NC(=O)/C(=C\c2c[nH]c3c(Br)cccc23)N1 | 6.95 | 6.08 | 6.34 | – | 5.67 | pKi [10]: 5.85; pKi [9]: < 5.00
26 | CSC1=NC(=O)/C(=C/c2c[nH]c3cccc(Br)c23)N1 | – | 6.05 | 6.11 | – | – | pKi [7]: 5.97
27 | C/N=C1\NC(=O)/C(=C\c2c[nH]c3c(Br)cccc23)N1C | 5.85 | 5.66 | 6.18 | < 5.00 | 5.10 | pKi [10]: 5.64; pKi [9]: < 5.00
28 | C/N=C1/N/C(=C/c2c[nH]c3cc(Br)ccc23)C(=O)N1C | – | 5.00 | 5.89 | – | – | pKi [9]: < 5.00
29 | CN1C(=N)N/C(=C/c2c[nH]c3cccc(Br)c23)C1=O | 5.89 | 5.77 | 6.64 | 5.46 | 5.06 | –
30 | CN1C(=N)N(C)/C(=C/c2c[nH]c3cc(Br)ccc23)C1=O | 5.02 | 5.77 | 5.57 | < 5.00 | – | –
31 | CSC1=NC(=O)/C(=C/c2c[nH]c3c(Br)cccc23)N1 | – | – | 6.00 | – | – | pKi [7]: 5.63
32 | CN1C(=N)NC(=O)/C1=C\c1c[nH]c2cccc(Br)c12 | – | 5.70 | 6.11 | – | 5.85 | pKi [1]: 6.10
33 | CN1C(=N)N/C(=C/c2c[nH]c3ccc(Br)cc23)C1=O | 5.63 | 5.90 | 7.03 | 5.13 | 6.55 | pKi [1]: 5.91
34 | C/N=C1/N/C(=C/c2c[nH]c3ccc(Br)cc23)C(=O)N1C | – | 5.87 | 6.28 | – | < 5.00 | pKi [1]: 5.47
35 | C/N=C1\N(C)C(=O)/C(=C\c2c[nH]c3cc(Br)ccc23)N1C | 5.33 | 5.91 | 5.61 | < 5.00 | – | –
36 | O=C1NC(=S)N/C1=C\c1c[nH]c2ccc(Br)cc12 | – | 5.36 | 5.78 | 5.56 | – | –
37 | C/N=C1\NC(=O)/C(=C\c2c[nH]c3ccccc23)N1C [ISOPLYSIN A] | – | 5.63 | 6.15 | – | – | –
38 | C/N=C1\NC(=O)/C(=C\c2c[nH]c3cc(Br)ccc23)N1C | – | 5.64 | 6.31 | – | – | –
39 | CN1C(=N)NC(=O)/C1=C\c1c[nH]c2cc(Br)ccc12 | – | 5.41 | 5.86 | – | – | –
40 | C/N=C1/N/C(=C/c2c[nH]c3cccc(Br)c23)C(=O)N1C | – | 5.63 | 6.11 | – | – | pKi [11]: < 5.00; pKi [12]: < 5.00
41 | N=C1NC(=O)/C(=C\c2c[nH]c3cc(Br)ccc23)N1 | 6.74 | 6.70 | 6.57 | – | 5.50 | pKi [9]: < 5.00
42 | CN1C(=N)NC(=O)/C1=C\c1c[nH]c2ccccc12 | – | 5.32 | 6.02 | – | – | –
43 | CN1C(=N)N/C(=C/c2c[nH]c3cc(Br)ccc23)C1=O | 5.27 | 5.72 | 6.72 | < 5.00 | 5.38 | –
44 | CN1C(=N)NC(=O)/C1=C\c1c[nH]c2c(Br)cccc12 | 5.88 | 5.38 | 5.85 | – | < 5.00 | pKi [9]: < 5.00
